Measured values reported in paper PMC5907918 (Biochemistry, 2017).

How the values were obtained:
human Sts-2HP = biological target: T1, human Sts-2HP (Homo sapiens, UniProt P57075); experiment: Steady state kinetics of phosphatase substrates, human Sts-2HP; assay type: biochemical; details: substrate as labelled, 298 K
T1 sequence (P57075 393-657): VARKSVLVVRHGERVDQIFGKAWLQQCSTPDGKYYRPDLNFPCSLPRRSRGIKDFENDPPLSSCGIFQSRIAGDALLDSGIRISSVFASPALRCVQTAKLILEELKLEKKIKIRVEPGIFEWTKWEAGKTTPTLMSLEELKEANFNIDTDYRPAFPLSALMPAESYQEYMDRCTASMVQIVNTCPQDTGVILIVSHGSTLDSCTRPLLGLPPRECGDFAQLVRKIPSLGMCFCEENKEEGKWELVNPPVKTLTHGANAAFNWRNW

Full-length Sts-1 = Full-length Sts-1 (Homo sapiens, UniProt Q8TF42); experiment: Steady state kinetics of phosphatase substrates, full-length Sts-1; assay type: biochemical; details: substrate as labelled, 298 K
human Sts-1HP [1] = biological target: T2, human Sts-1HP (Homo sapiens, UniProt Q8TF42); experiment: Steady state kinetics of phosphatase substrates, human Sts-1HP; assay type: biochemical; details: substrate as labelled, 298 K
[2] = biological target: histidine phosphatase domain of human Sts-1 (Sts-1HP) (human) (UniProt Q8TF42); experiment: crystal structure
human Sts-1HP [3] = biological target: T2, human Sts-1HP; experiment: Inhibition of Sts-1HP phosphatase activity; assay type: biochemical; details: known phosphatase inhibitors tested
PTP-1B = details: cited from earlier work

T2 sequence (Q8TF42 380-647): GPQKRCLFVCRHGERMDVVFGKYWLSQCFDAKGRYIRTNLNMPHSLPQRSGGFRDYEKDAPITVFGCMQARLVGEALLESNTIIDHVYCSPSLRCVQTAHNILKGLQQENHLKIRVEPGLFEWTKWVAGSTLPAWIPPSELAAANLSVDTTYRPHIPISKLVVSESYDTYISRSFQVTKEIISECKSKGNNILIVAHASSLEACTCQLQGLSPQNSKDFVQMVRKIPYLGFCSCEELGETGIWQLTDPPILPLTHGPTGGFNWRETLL
Chain of Full-length Sts-1 (Q8TF42 whole entry): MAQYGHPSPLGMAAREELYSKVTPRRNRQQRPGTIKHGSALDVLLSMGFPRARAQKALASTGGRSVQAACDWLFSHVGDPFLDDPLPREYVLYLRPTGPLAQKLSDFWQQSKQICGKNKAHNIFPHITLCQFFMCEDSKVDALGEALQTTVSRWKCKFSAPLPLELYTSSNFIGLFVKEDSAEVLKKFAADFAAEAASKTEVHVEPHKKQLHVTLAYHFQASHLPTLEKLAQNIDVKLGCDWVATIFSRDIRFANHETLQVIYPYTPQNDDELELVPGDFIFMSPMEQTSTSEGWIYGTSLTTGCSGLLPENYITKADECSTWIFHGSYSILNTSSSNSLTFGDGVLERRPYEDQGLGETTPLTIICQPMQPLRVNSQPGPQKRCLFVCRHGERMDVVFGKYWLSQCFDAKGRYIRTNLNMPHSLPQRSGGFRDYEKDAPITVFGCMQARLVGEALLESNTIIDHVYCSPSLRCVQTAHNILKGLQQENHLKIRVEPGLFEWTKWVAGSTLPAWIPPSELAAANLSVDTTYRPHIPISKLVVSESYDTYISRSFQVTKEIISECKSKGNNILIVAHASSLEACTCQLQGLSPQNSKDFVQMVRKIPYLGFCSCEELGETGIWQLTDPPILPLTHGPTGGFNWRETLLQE

Row | Compound | Km (human Sts-2HP) | kcat (human Sts-2HP) | Km (human Sts-1HP [1]) | kcat (human Sts-1HP [1]) | inhibition of Sts-1HP phosphatase activity (in words) (human Sts-1HP [3]) | also measured
1 | O=[N+]([O-])c1ccc(OP(=O)(O)O)cc1 [pNPP, para-nitrophenyl phosphate] | 5610 ± 1690 µM | 1.23 ± 0.15 s⁻¹ | 2640 ± 480 µM | 13.62 ± 0.63 s⁻¹ |  | Km (Full-length Sts-1): 3310 ± 270 µM; kcat (Full-length Sts-1): 158.6 ± 6.48 s⁻¹
2 | histidine phosphatase domain of human Sts-1 (Sts-1HP) (from UniProt Q8TF42 369-636) (domain or fragment) |  |  |  |  |  | stoichiometry N [2]: 2
3 | Nc1ccc(S(=O)(=O)O)cc1 [Sulfanilic acid] |  |  |  |  | modest inhibitor | 
4 | COc1ccc2c(c1)Oc1cc(OP(=O)(O)O)ccc1C21OC(=O)c2ccccc21 (stereo not drawn) [OMFP, 3-O-Methylfluorescein phosphate] | 1070 ± 240 µM | 5.86 ± 0.78 s⁻¹ | 190 ± 30 µM | 786.1 ± 52.4 s⁻¹ |  | 
5 | CN(N=O)c1ccc(O)c(O)c1 [Methyl-dephostatin, methyl-3,4-dephostatin] |  |  |  |  | not affected | IC50 (PTP-1B): 3.5 µM
6 | Cc1cc(=O)oc2c(F)c(OP(=O)(O)O)c(F)cc12 [DifMUP, 6,8-Difluoro-4-Methylumbelliferyl Phosphate] | 850 ± 230 µM | 4.92 ± 0.76 s⁻¹ | 2 µM | 100.68 s⁻¹ |  | 
7 | O=C1C(=NNc2ccc(S(=O)(=O)O)cc2)C(c2ccc([N+](=O)[O-])cc2)=NN1c1ccccc1 [PHPS1, 4-[2-[1,5-dihydro-3-(4-nitrophenyl)-5-oxo-1-phenyl-4H-pyrazol-4-ylidene]hydrazinyl]-benzenesulfonic acid] |  |  |  |  | potent competitive inhibitor | IC50 (PTP-1B): 19 µM
8 | O=P(O)(O)OC(CO)CO [β-glycerophosphate] |  |  |  |  | did not show any observable level of inhibition | 
